How the values were obtained:
Csx1 = target: T1, Csx1 (Saccharolobus solfataricus, UniProt Q97YD5); experiment: native gel electrophoretic mobility shift, quadratic fit; format: binding
T1 construct: recombinant from plasmid expression construct; homodimer
T1 sequence (Q97YD5 1-377): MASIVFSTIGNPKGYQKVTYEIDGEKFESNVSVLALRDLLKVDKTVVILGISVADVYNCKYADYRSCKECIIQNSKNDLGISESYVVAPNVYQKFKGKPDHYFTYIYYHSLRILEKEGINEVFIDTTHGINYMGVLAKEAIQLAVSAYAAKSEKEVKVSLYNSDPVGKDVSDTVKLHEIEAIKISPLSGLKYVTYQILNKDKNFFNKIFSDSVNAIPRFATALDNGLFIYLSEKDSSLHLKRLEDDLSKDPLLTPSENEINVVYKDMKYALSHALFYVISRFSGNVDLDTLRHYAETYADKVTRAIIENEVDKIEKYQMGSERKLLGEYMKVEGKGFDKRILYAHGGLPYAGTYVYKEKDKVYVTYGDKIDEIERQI

Crn1 (Sso2081) = target: T2, Crn1 (Sso2081) (Saccharolobus solfataricus, UniProt Q7LYJ6); experiment: native gel electrophoretic mobility shift; format: binding; settings: read-out: apparent KD
T2 construct: recombinant from plasmid expression construct; homodimer
T2 sequence (Q7LYJ6 1-178): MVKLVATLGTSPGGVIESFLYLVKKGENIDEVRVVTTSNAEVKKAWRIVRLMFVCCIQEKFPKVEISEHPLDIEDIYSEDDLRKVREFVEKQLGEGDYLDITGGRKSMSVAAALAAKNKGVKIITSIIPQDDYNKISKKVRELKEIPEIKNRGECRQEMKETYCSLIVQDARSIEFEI

**Q.** How did the Kd (Csx1) turn out when `Nc1ncnc2c1ncn2[C@@H]1O[C@@H]2COP(=O)(O)O[C@H]3[C@@H](O)[C@H](n4cnc5c(N)ncnc54)O[C@@H]3COP(=O)(O)O[C@H]3[C@@H](O)[C@H](n4cnc5c(N)ncnc54)O[C@@H]3COP(=O)(O)O[C@H]3[C@@H](O)[C@H](n4cnc5c(N)ncnc54)O[C@@H]3COP(=O)(O)O[C@H]2[C@H]1O` [cA4, cyclic tetra-adenylate] was run?
**A.** 0.13 ± 0.02 µM

**Q.** And the Kd (Crn1 (Sso2081))?
**A.** ~0.05 µM

— article PMC7213978, “The dynamic interplay of host and viral enzymes in type III CRISPR-mediated cyclic nucleotide signalling” (eLife, 2020)
